By IC50 is commonly meant the point on the concentration scale where inhibition reaches its midpoint.

This is an account of results in ChEMBL document CHEMBL6120939, “STATs, promising targets for the treatment of autoimmune and inflammatory diseases” (Eur J Med Chem, 2024).

Assay [1] is described as follows: Inhibition of C57BL/6 mouse Th17 cell differentiation from CD4+ T cells assessed as reduction in IL-17a mRNA expression incubated for 96 hrs by qPCR analysis. In kind it is functional, cell-based. Particulars: C57BL/6, Th17, 96 h. A general note: Quantitative PCR measures a nucleic acid by following its amplification.
Assay [2] deals with Signal transducer and activator of transcription 3 (Homo sapiens, UniProt P40763). Briefly: Inhibition of STAT3 phosphorylation in human HepG2 cells by immuno-fluorescence analysis. In kind it is cell-based.
Assay [3] has as its system Mus musculus. Briefly: Anti-inflammatory activity against DSS-induced acute colitis C57BL/6J mouse model assessed as reduction in IL-1beta level in colon at 10 to 20 mg/kg, po measured for 7 days by ELISA analysis. Type of assay: functional, organism-based. Particulars: 168 h. (In an ELISA, binding on a coated surface is turned into a signal by an enzyme label.)
For the next assay, the system named is Rattus norvegicus. Put plainly: Antiinflammatory activity against TNBS-induced colitis in Sprague-Dawley rat model assessed as reduction in colon TNFalpha level at 1 mg/kg, po administered for 5 days by ELISA. Particulars: 120 h. In kind it is functional, organism-based.
Assay [4] relates to Mus musculus. Briefly: Anti-asthmatic activity in OVA-induced ip dosed female BALB/c mouse model assessed as reduction in pulmonary IL-13 level administered for 30 min measured after 21 days by ELISA. In kind it is functional, organism-based.

Sequence of Signal transducer and activator of transcription 3 (P40763 whole entry): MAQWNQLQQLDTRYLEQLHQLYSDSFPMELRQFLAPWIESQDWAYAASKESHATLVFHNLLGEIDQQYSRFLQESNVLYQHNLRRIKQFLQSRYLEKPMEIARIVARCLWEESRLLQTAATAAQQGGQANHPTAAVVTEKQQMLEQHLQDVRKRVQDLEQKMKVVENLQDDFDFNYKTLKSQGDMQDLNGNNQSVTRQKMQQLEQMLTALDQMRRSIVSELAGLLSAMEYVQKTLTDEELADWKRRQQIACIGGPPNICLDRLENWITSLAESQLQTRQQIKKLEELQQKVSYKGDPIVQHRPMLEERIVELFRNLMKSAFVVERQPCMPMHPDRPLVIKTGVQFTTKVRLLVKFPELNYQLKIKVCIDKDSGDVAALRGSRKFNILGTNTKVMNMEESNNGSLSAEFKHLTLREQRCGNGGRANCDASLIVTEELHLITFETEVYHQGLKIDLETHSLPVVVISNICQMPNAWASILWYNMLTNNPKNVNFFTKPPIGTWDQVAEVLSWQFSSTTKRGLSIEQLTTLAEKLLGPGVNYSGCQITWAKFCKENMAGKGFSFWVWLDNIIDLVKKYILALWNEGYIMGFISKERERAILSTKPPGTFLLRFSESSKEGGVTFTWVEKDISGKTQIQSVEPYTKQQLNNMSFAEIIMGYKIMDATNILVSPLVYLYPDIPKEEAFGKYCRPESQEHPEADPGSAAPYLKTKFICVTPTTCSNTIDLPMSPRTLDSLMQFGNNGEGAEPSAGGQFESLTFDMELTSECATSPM

For the compound `NS(=O)(=O)c1cccc2c1C(=O)c1cccc(O)c1C2=O`, the IC50 in assay [1] was 180 nM.

Regarding `CC1CC(=O)c2c(ccc3c2C(=O)c2cccc(O)c2C3=O)C1` (stereo not drawn), the IC50 in assay [2] is 12.2 µM.

With `Cc1cc(OCCCS(C)(=O)=O)cc(C)c1-c1cccc(COc2ccc3c(c2)OC[C@H]3CC(=O)O)c1` [FASIGLIFAM], the IC50 in the assay with Mus musculus [3] is 4.74 µM.

Take `CN(C)C(=O)Oc1cccc2c1C(=O)c1cccc(S(N)(=O)=O)c1C2=O`: in assay [1], the IC50 was 220 nM.

Take `Cc1ccc(S(=O)(=O)OCC(=O)Nc2ccc(C(=O)O)c(O)c2)cc1`: the IC50 with Rattus norvegicus was 86 µM.

As for `NC(=O)c1cnc(NCCc2ccc(O)c(Cl)c2)nc1NCc1ccccc1`, in the assay on Mus musculus [4], the IC50 is 21 nM.

For `COc1ccc(S(=O)(=O)Nc2cc(-c3c(O)ccc4ccccc34)c(O)c3ccccc23)cc1` [C-188-9], the IC50 in the assay on Rattus norvegicus stood at 4 µM.

For the compound `NC(=O)c1cnc(Nc2ccc(N3CCOCC3)cc2)nc1NCc1c(F)ccc(F)c1F`, the IC50 in the assay with Mus musculus [4] was found to be 0.7 nM.
